Legend:
Type in all cases: cell-based
MRGPRX2 [1] = target: T1, MRGPRX2 (Homo sapiens, UniProt Q96LB1); test: MRGPRX2 FLIPR calcium mobilization assay; parameters: host or cells: CHO-K1; conditions: CHO-K1 cells stably expressing human MRGPRX2; Ca2+ release; agonist Cortistatin-14 at EC80
T1 sequence (Q96LB1 1-330): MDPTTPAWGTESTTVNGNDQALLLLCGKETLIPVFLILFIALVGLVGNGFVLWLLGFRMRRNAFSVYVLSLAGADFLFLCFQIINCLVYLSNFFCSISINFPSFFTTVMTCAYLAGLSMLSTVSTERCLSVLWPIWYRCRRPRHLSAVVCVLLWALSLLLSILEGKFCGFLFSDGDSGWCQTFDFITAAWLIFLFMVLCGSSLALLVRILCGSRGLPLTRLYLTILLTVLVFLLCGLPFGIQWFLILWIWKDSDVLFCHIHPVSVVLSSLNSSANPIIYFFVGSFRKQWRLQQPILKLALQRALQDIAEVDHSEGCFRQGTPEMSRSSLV
Procedure, shortened: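 CHO-K1 cells stably expressing the receptor, loaded with Calcium 6 dye, then preincubated 30 min at r.t. with compound in HBSS/20 mM HEPES pH 7.4. Cortistatin-14 at EC80 added; baseline-adjusted maximum RFU read over 110 s. IC50 from 3- or 4-parameter Hill fit.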

MRGPRX2 [2] = target: T1, MRGPRX2; test: MRGPRX2 IP1 HTRF assay; parameters: host or cells: CHO-K1; conditions: CHO-K1 cells stably expressing human MRGPRX2; IP1 accumulation; agonist Cortistatin 14 1 μM
Procedure, shortened: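 CHO-K1 cells stably expressing human MRGPRX2, preincubated with compound 1 h at 37 °C, then stimulated with 1 μM Cortistatin 14 for 1 h. IP1 measured by HTRF against standard curve, normalized to DMSO and reference antagonist controls; IC50 from 3- or 4-parameter Hill fit.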

MRGPRX2 [3] = target: T1, MRGPRX2; test: MRGPRX2 β-Arrestin recruitment assay (PathHunter); parameters: host or cells: CHO-K1 (PathHunter); conditions: PathHunter CHO-K1 MRGPRX2 β-Arrestin cell line; agonist Cortistatin 14 0.25 μM
Procedure, shortened: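 CHO-K1 PathHunter cells co-expressing ProLink-tagged MRGPRX2 and enzyme-acceptor-tagged β-arrestin were preincubated with compound 1 h at 37° C., then stimulated with cortistatin-14 (0.25 μM final) for 90 min. Enzyme-complementation luminescence read after 1 h detection; data normalized to DMSO and reference antagonist, IC50 from 3- or 4-parameter Hill fit.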

SMILES	IC50 (MRGPRX2 [1]) [nM]	IC50 (MRGPRX2 [2]) [nM]	IC50 (MRGPRX2 [3]) [nM]
NC(=O)N1CC(CNc2cc(C(F)(F)F)nc3cc(Br)nn23)(c2ccc(Cl)cc2)C1 [Example 58, 3-(((2-Bromo-5-(trifluoromethyl)pyrazolo[1,5-a]pyrimidin-7-yl)amino)methyl)-3-(4-chlorophenyl)azetidine-1-carboxamide]	0.1 to 100	0.1 to 100	0.1 to 100
NS(=O)(=O)N1CC(CNc2cc(C(F)(F)F)nc3cc(C(F)(F)F)nn23)(c2ccc(F)cn2)C1 [Example 59, 3-(((2,5-Bis(trifluoromethyl)pyrazolo[1,5-a]pyrimidin-7-yl)amino)methyl)-3-(5-fluoropyridin-2-yl)azetidine-1-sulfonamide]	0.1 to 100	0.1 to 100	0.1 to 100
[2H]C([2H])([2H])NC(=O)N1CC(CNc2cc(C(F)(F)F)nc3cc(C(F)(F)F)nn23)(c2ccc(F)cn2)C1 [Example 61, 3-(((2,5-Bis(trifluoromethyl)pyrazolo[1,5-a]pyrimidin-7-yl)amino)methyl)-3-(5-fluoropyridin-2-yl)-N-(methyl-d3)azetidine-1-carboxamide]	0.1 to 100	0.1 to 100	0.1 to 100
[2H]C([2H])([2H])NC(=O)N1CC(CNc2cc(C(F)(F)F)nc3cc(C(F)F)nn23)(c2ccc(F)cc2)C1 [Example 62, 3-(((2-(Difluoromethyl)-5-(trifluoromethyl)pyrazolo[1,5-a]pyrimidin-7-yl)amino)methyl)-3-(4-fluorophenyl)-N-(methyl-d3)azetidine-1-carboxamide]	0.1 to 100	0.1 to 100	0.1 to 100
NS(=O)(=O)N1CC(CNc2cc(C(F)(F)F)nc3cc(C4CC4)nn23)(n2cccn2)C1 [Example 94, 3-(((2-Cyclopropyl-5-(trifluoromethyl)pyrazolo[1,5-a]pyrimidin-7-yl)amino)methyl)-3-(1H-pyrazol-1-yl)azetidine-1-sulfonamide]	0.1 to 100	100 to 1000	100 to 1000
COc1cc(NCC2(c3ccc(F)cc3)CN(S(N)(=O)=O)C2)n2nc(C(F)(F)F)cc2n1 [Example 106, 3-(4-Fluorophenyl)-3-(((5-methoxy-2-(trifluoromethyl)pyrazolo[1,5-a]pyrimidin-7-yl)amino)methyl)azetidine-1-sulfonamide]	0.1 to 100	0.1 to 100	0.1 to 100

Second part, the compound after the results:

IC50 (MRGPRX2 [1]) [nM]	IC50 (MRGPRX2 [2]) [nM]	IC50 (MRGPRX2 [3]) [nM]	SMILES
0.1 to 100	0.1 to 100	0.1 to 100	O=C(N[C@H]1CC[C@H](O)CC1)N1CC(CNc2cc(C(F)(F)F)nc3cc(C(F)(F)F)nn23)(c2ccc(F)cc2)C1 [Example 48, 3-(((2,5-Bis(trifluoromethyl)pyrazolo[1,5-a]pyrimidin-7-yl)amino)methyl)-3-(4-fluorophenyl)-N-((1r,4r)-4-hydroxycyclohexyl)azetidine-1-carboxamide]
0.1 to 100	0.1 to 100	0.1 to 100	O=C(N[C@H]1C[C@H](O)C1)N1CC(CNc2cc(C(F)(F)F)nc3cc(C(F)(F)F)nn23)(c2ccc(F)cc2)C1 [Example 49, 3-(((2,5-Bis(trifluoromethyl)pyrazolo[1,5-a]pyrimidin-7-yl)amino)methyl)-3-(4-fluorophenyl)-N-((1r,3r)-3-hydroxycyclobutyl)azetidine-1-carboxamide]
0.1 to 100	0.1 to 100	0.1 to 100	NC(=O)N1CC(CNc2cc(C(F)(F)F)nc3cc(Cl)nn23)(c2ccc(F)cc2)C1 [Example 57, 3-(((2-Chloro-5-(trifluoromethyl)pyrazolo[1,5-a]pyrimidin-7-yl)amino)methyl)-3-(4-fluorophenyl)azetidine-1-carboxamide]
0.1 to 100	0.1 to 100	0.1 to 100	NC(=O)N1CC(CNc2cc(Cl)nc3cc(C(F)(F)F)nn23)(c2ccc(F)cc2)C1 [Example 66, 3-(((5-Chloro-2-(trifluoromethyl)pyrazolo[1,5-a]pyrimidin-7-yl)amino)methyl)-3-(4-fluorophenyl)azetidine-1-carboxamide]
0.1 to 100	0.1 to 100	0.1 to 100	Cc1cc(NCC2(c3ccc(F)cc3)CN(C(N)=O)C2)n2nc(C(F)(F)F)cc2n1 [Example 67, 3-(4-Fluorophenyl)-3-(((5-methyl-2-(trifluoromethyl)pyrazolo[1,5-a]pyrimidin-7-yl)amino)methyl)azetidine-1-carboxamide]
0.1 to 100	0.1 to 100	0.1 to 100	CCc1cc(NCC2(c3ccc(F)cc3)CN(C(N)=O)C2)n2nc(C(F)(F)F)cc2n1 [Example 68, 3-(((5-Ethyl-2-(trifluoromethyl)pyrazolo[1,5-a]pyrimidin-7-yl)amino)methyl)-3-(4-fluorophenyl)azetidine-1-carboxamide]
0.1 to 100	0.1 to 100	0.1 to 100	O=C(N[C@H]1CC[C@H](O)CC1)N1CC(CNc2cc(C(F)(F)F)nc3cc(Br)nn23)(c2ccc(F)cc2)C1 [Example 96, 3-(((2-Bromo-5-(trifluoromethyl)pyrazolo[1,5-a]pyrimidin-7-yl)amino)methyl)-3-(4-fluorophenyl)-N-((1r,4r)-4-hydroxycyclohexyl)azetidine-1-carboxamide]

From patent US20250084087A1, “BICYCLIC HETEROCYCLES AS MRGPRX2 ANTAGONISTS” (Incyte Corporation, priority 2023, published 2025)
